From patent US11707464B2, “Methods of treating heavy menstrual bleeding” (AbbVie Inc., priority 2013, dated 2023)

Experiments:
Assay type in all cases: in vivo, human
[1] = tested on: premenopausal women with endometriosis; experiment: Phase 2 endometriosis studies: uterine bleeding by daily eDiary; conditions: for days of bleeding per month: eDiary
Method: The effects of elagolix on uterine bleeding were evaluated in the Phase 2 endometriosis program, with an analysis of the percentage of days of bleeding per month according to daily reporting of bleeding in an electronic diary (eDiary).

[2] = tested on: women with endometriosis; experiment: Phase 2 endometriosis studies: bone mineral density (BMD) over 24 weeks
Method: Changes in BMD at the lumbar spine and the femur were evaluated over 24 weeks in three Phase 2 endometriosis studies. […] While a larger effect on BMD is anticipated with a 200 or 300 mg BID regimen compared to that observed with 250 mg QD dosed for 6 months in previous studies, the magnitude of this effect is unknown.

[3] = tested on: premenopausal women with uterine fibroids and heavy menstrual bleeding; experiment: Phase 2a uterine fibroid trial: fibroid volume and uterine volume; conditions: for percent of subjects who achieved a ≥25% reduction in uterine volume: placebo 9%; for percent of subjects who achieved a ≥25% reduction in fibroid volume: placebo 29%
Excerpt: In another embodiment, the present invention relates to methods for reducing the fibroid volume in a subject with uterine fibroids. In one aspect, the methods of the present invention can be used to reduce the fibroid volume by greater than or equal to at least about 25%. In another aspect, the methods of the present invention can be used to reduce the fibroid volume in a subject with uterine fibroids. More specifically, the methods of the present invention can be used to reduce the fibroid volume in a subject with uterine fibroids by volume by greater than or equal to at least about 25%. In another aspect, the methods of the present invention are used to reduce the fibroid volume in a subject with uterine fibroids prior to hysterectomy, myomectomy, or uterine artery embolization. Methods for measuring fibroid volume are known in the art and include ultrasound and/or MRI.
In another embodiment, the present invention relates to methods for reducing the total uterine volume in a subject with uterine fibroids. The “total uterine volume” is the volume of the entire uterus. In one aspect, the methods of the present invention can be used to reduce the total uterine volume by greater than or equal to at least about 25%. In another aspect, the methods of the present invention can be used to reduce the total uterine volume in a subject with uterine fibroids. More specifically, the methods of the present invention can be used to reduce the total uterine volume in a subject with uterine fibroids by greater than or equal to at least about 25%. Methods for measuring total uterine volume are known in the art and include, ultrasound and/or MRI.
This example is a Phase 2a, multicenter, double-blind, placebo-controlled, randomized trial (N=280) with a 3-month treatment duration evaluating the safety and efficacy of Elagolix administered with or without Activella® in premenopausal women with uterine fibroids.
It evaluates the safety and efficacy of […] of Elagolix (100 mg BID, 200 mg BID, 200 mg BID plus low dose Activella® (a combination of 0.5 mg estradiol and 0.1 mg northindrone acetate), 300 mg BID, 300 mg BID plus 1.0 mg of Estrace and 200 mg cyclical Prometrium (collectively referred to as “EP”), 400 mg QD and 600 QD) versus placebo (PBO) to reduce uterine bleeding associated with uterine fibroids and to reduce fibroid volume and uterine volume in premenopausal women 20 to 49 years of age with heavy menstrual bleeding (HMB; >80 mL blood loss per menstrual cycle). The study involved the following six (6) cohorts:
There are a number of efficacy endpoints, but a composite endpoint consisting of two bleeding assessments was used to assess one measure of efficacy. It included the percent of subjects who achieved a menstrual blood loss (MBL) volume of <80 mL at the Final Month (last 28 days of treatment), and also achieved a ≥50% reduction in MBL volume from baseline to the Final Month (last 28 days of treatment) as measured by the Alkaline Hematin (AH) method. Eighty-five percent (85%), 97%, and 30% of subjects achieved the composite bleeding assessment endpoint in the 200 mg BID, 300 mg BID, and placebo groups, respectively (P<0.05 for 200 mg BID versus placebo in cohort 1, and 300 mg BID versus placebo in cohort 2). […]

[4] = tested on: women; experiment: Suppression of pituitary and ovarian hormones in women
Excerpt: The term “Elagolix” refers to 4-((R)-2-[5-(2-fluoro-3-methoxy-phenyl)-3-(2-fluoro-6-trifluoromethyl-benzyl)-4-methyl-2,6-dioxo-3,6-dihydro-2H-pyrimidin-1-yl]-1-phenyl-ethylamino)-butyric acid or a pharmaceutically acceptable salt thereof. Elagolix is an orally active, non-peptide GnRH antagonist and is unlike other GnRH agonists and injectable (peptide) GnRH antagonists. […] Methods of making Elagolix and a pharmaceutically acceptable salt thereof are described in WO 2005/007165, the contents of which are herein incorporated by reference.

COc1cccc(-c2c(C)n(Cc3c(F)cccc3C(F)(F)F)c(=O)n(C[C@H](NCCCC(=O)O)c3ccccc3)c2=O)c1F [Elagolix, 4-((R)-2-[5-(2-fluoro-3-methoxy-phenyl)-3-(2-fluoro-6-trifluoromethyl-benzyl)-4-methyl-2,6-dioxo-3,6-dihydro-2H-pyrimidin-1-yl]-1-phenyl-ethylamino)-butyric acid]
days of bleeding per month ([1]; 250 mg QD compared with 150 mg QD): fewer days of bleeding | bleeding intensity and intervals between bleeding episodes ([1]; majority of elagolix recipients, individual menstrual charts from eDiary): reduced bleeding intensity and often had extended intervals between bleeding episodes | days of bleeding per month ([1]; overall, compared with placebo): fewer days of bleeding per month | subjects with decreases in BMD of the spine that exceeded 5% ([2]; 75 mg BID, 5/62 subjects, 24 weeks, largest study): 8.1% | largest decrease in BMD of the spine ([2]; 150 mg QD and 75 mg BID, 24 weeks, largest study): no subject exceeded −8% | subjects with decreases in BMD of the spine that exceeded 5% ([2]; 150 mg QD, 2/55 subjects, 24 weeks, largest study): 3.6% | bone loss ([2]; doses that provide partial estrogen suppression (target dose 150 mg QD)): modest degree of bone loss | percent of subjects who achieved a ≥25% reduction in uterine volume ([3]; 200 mg BID): 50% | percent of subjects who achieved a ≥25% reduction in fibroid volume ([3]; 200 mg BID): 63% | percent of subjects who achieved a ≥25% reduction in uterine volume ([3]; 300 mg BID): 68% | percent of subjects who achieved a ≥25% reduction in fibroid volume ([3]; 300 mg BID): 55% | uterine and fibroid volumes (FIG. 4) ([3]; 300 mg BID, within 3 months): strongest effects | suppression of pituitary and ovarian hormones [4]: dose dependent suppression
